According to patent publication US11571421B2, “GABAA positive allosteric modulator compounds for treatment of itch and/or dermatitis” (NeuroCycle Therapeutics, Inc., priority 2018, dated 2023):

Experiments:
Type in all cases: in vivo
[1] = system: Histamine-Induced Itch Model in Male C57BL/6 Mice; assay: Histamine-Induced Itch Model (Example 3); conditions: oral gavage 90 min before 100 μg histamine cheek injection; 1, 3, 10, 30 and 100 mg/kg
Protocol: PF-06372865 (an alpha 2, alpha 3, and alpha 5 agonist; and an alpha 1 antagonist) is assessed for its antipruritic effects against a cheek injection of 100 μg histamine in wild-type C57BL/6 mice. The mice are dosed with PF-06372865 by oral gavage ninety (90) minutes before histamine injection. Doses of PF-06372865 are vehicle, 1, 3, 10, 30 and 100 mg/kg.

[2] = system: Non-Histamine-Induced Itch Model in Male C57BL/6 Mice; assay: Non-Histamine (chloroquine)-Induced Itch Model (Example 5); conditions: oral gavage 90 min before chloroquine; 1, 3, 10, 30 and 100 mg/kg
Protocol: The mice are dosed with PF-06372865 by oral gavage ninety (90) minutes before chloroquine injection. Doses of PF-06372865 are 1, 3, 10, 30 and 100 mg/kg.

[3] = system: Oxazolone-induced Itch Model in Male C57BL/6 Mice; assay: Oxazolone-induced dermatitis model of chronic itch (Example 7)
Protocol: In order to assess: the antipruritic effect of PF-06372865 in a clinically relevant disease, the development of a tolerance towards the antipruritic effect of PF-06372865, and the effect of PF-06372865 in reducing dermatitis after prolonged treatment, the oxazolone-induced dermatitis model of chronic itch is used. To this end, wild-type C57Bl/6 mice are treated with 100 μL of 10% oxazolone (4-Ethoxymethylene-2-phenyl-2-oxazolin-5-one) dissolved in acetone/olive oil (4:1) on the nape of the neck. From day 7 to day 31 these mice are treated every other day with 100 μL 1% oxazolone to induce and maintain dermatitis and chronic itch. From day 17 onward, mice are treated with intraperitoneal injection of vehicle or 10 mg/kg PF-06372865 for thirteen consecutive days. On day 31, mice are given either intraperitoneal injection of vehicle or PF-06372865 (10 mg/kg). The number of scratching bouts directed to the nape of the neck between 15 to 210 min after injection are recorded. […] This is independent of the treatment they received from day 7 to day 30. […] To quantify the severity of skin lesions, a dermatitis score are determined. Hemorrhage/erythema, dryness/scaring and hyperplasia (Yamada et. al. Exp Dermatol. 2016, 25, 611-617) are scored as 0 (none), 1 (mild), 2 (moderate) or 3 (severe) once per day resulting in a score between 0 and 9. […]

## CCn1cnc2c(-c3ccc(F)c(-c4ccc(S(=O)(=O)CC)cc4OC)c3)cnnc21 [PF-06372865]
[1]
  scratching bouts, histaminergic itch: dose-dependent reduction of scratching bouts
[2]
  scratching bouts, chloroquine-induced itch: dose-dependent reduction of scratching bouts
[3]; 10 mg/kg intraperitoneal for thirteen consecutive days
  skin lesions (dermatitis score): significant reduction in skin lesions
[3]; 10 mg/kg intraperitoneal on day 31, 15 to 210 min after injection
  scratching bouts compared to vehicle injection: significant reduction in scratching bouts
